Laboratory results reported in US10165779B2, “Substituted pyrazolylpyrazole derivative and use of same as herbicide” (KYOYU AGRI CO., LTD., priority 2015, dated 2019).

Tests used:
Assay type in all cases: in vivo
Amaranthus retroflexus [1] = test: Weed foliar treatment test (Test 3, 1.0 to 2.0 leaf stage); conditions: foliar spray at 1.0 to 2.0 leaf stage of Digitaria ciliaris, 3 weeks
Protocol: (§1) Soil was filled into a 1/6000 are pot followed by seeding with Digitaria ciliaris, Chenopodium album and Amaranthus retroflexus, covering with soil, and cultivating in a glass greenhouse at an average atmospheric temperature of 25° C.
(§2) Wettable powders of Target Compound (I) shown in Table 1 prepared in compliance with the preparation examples were diluted with water to the prescribed amount of chemical and uniformly sprayed onto the weeds using 150 liters of sprayed water per 10 are when Digitaria ciliaris had grown to the 1.0 to 2.0 leaf stage.
(§3) After treating for 3 weeks in a glass greenhouse at an average atmospheric temperature of 25° C., the herbicidal efficacy thereof was investigated.
(§4) Evaluation of herbicidal efficacy was carried out in the same manner as the above-mentioned Test Example 1.

Digitaria ciliaris [2] = test: as above; conditions: foliar spray at 1.0 to 2.0 leaf stage of Digitaria ciliaris, 3 weeks
Protocol: as §1, §2, §3, §4

Chenopodium album [3] = test: as above; conditions: foliar spray at 1.0 to 2.0 leaf stage of Digitaria ciliaris, 3 weeks
Protocol: as §1, §2, §3, §4

Oryza sativa = test: Paddy herbicidal activity test, phytotoxicity to transplanted rice; conditions: rice transplanted at 2.0 leaf stage, 30 days
Protocol: (§5) After treating for 30 days in a glass greenhouse at an average atmospheric temperature of 30° C., the herbicidal efficacy thereof was investigated. Evaluation of herbicidal efficacy was carried out by comparing growth inhibition rate (%) with an untreated group, while evaluation of phytotoxicity was carried out by comparing growth inhibition rate (%) with the state of a complete eradication group, and were evaluated at 11 levels indicated below. […] 2: 20% to less than 30% 3: 30% to less than 40% 4: 40% to less than 50% 5: 50% to less than 60% 6: 60% to less than 70% 7: 70% to less than 80% […]

Amaranthus retroflexus [4] = test: Farming soil treatment test; conditions: soil surface spray prior to weed growth, 30 days
Protocol: (§6) Field soil was filled into a 1/6000 are pot followed by seeding with Digitaria cilaris, Chenopodium album and Amaranthus retroflexus and covering with soil.
(§7) Wettable powders of compounds of formula (I) shown in Table 1 prepared in compliance with the preparation examples were diluted. with water to the prescribed amount of chemical and uniformly sprayed onto each soil surface layer using 100 liters of sprayed water per 10 are prior to weed growth following seeding.
(§8) After treating for 30 days in a glass greenhouse at an average atmospheric temperature of 30° C., the herbicidal efficacy thereof was investigated.
as §4

Digitaria ciliaris [5] = test: Farming soil treatment test; conditions: soil surface spray prior to weed growth, 30 days
Protocol: as §6, §7, §8, §4

Chenopodium album [6] = test: Farming soil treatment test; conditions: soil surface spray prior to weed growth, 30 days
Protocol: as §6, §7, §8, §4

Monochoria vaginalis = test: Paddy herbicidal activity test; conditions: irrigated paddy pot, 30 days
Protocol: as §5

Echinochloa crus-galli = test: Paddy herbicidal activity test; conditions: irrigated paddy pot, treated at 3.5 leaf stage of Echinochloa crus-galli, 30 days
Protocol: as §5

Scirpus juncoides = test: Paddy herbicidal activity test; conditions: irrigated paddy pot, 30 days
Protocol: as §5

Digitaria ciliaris [7] = test: Weed foliar treatment test (Test 4, 4.0 to 5.0 leaf stage); conditions: 10 g a.i./10a; foliar spray at 4.0 to 5.0 leaf stage of Digitaria ciliaris (plant height 10 cm to 15 cm); 20 days
Protocol: (§9) Field soil was filled into a 1/4500 are pot followed by seeding with Digitaria ciliaris and Galinsoga parviflora, covering with soil and cultivating in a glass greenhouse at an average atmospheric temperature of 25° C.
as §2, with “100” for “150”, “4.0” for “1.0”, “5.0” for “2.0”, “stage (plant height: 10 cm to 15 cm).” for “stage.”
(§10) After treating for 20 days in a glass greenhouse at an average atmospheric temperature of 25° C., the herbicidal efficacy thereof was investigated.
as §4

Galinsoga parviflora = test: as above; conditions: 10 g a.i./10a; foliar spray at 4.0 to 5.0 leaf stage of Digitaria ciliaris; 20 days
Protocol: as §9
as §2, with “100” for “150”, “4.0” for “1.0”, “5.0” for “2.0”, “stage (plant height: 10 cm to 15 cm).” for “stage.”
as §10, §4

Compound | herbicidal efficacy Amaranthus retroflexus (Amaranthus retroflexus [1]; 5g a.i./10a) | herbicidal efficacy Amaranthus retroflexus (Amaranthus retroflexus [1]; 10g a.i./10a) | herbicidal efficacy Digitaria ciliaris (Digitaria ciliaris [2]; 5g a.i./10a) | herbicidal efficacy Digitaria ciliaris (Digitaria ciliaris [2]; 10g a.i./10a) | herbicidal efficacy Chenopodium album (Chenopodium album [3]; 5g a.i./10a) | herbicidal efficacy Chenopodium album (Chenopodium album [3]; 10g a.i./10a) | phytotoxicity Oryza sativa (Oryza sativa; 1g a.i./10a) | phytotoxicity Oryza sativa (Oryza sativa; 5g a.i./10a) | herbicidal efficacy Amaranthus retroflexus (Amaranthus retroflexus [4]; 5g a.i./10a) | herbicidal efficacy Amaranthus retroflexus (Amaranthus retroflexus [4]; 10g a.i./10a) | herbicidal efficacy Digitaria ciliaris (Digitaria ciliaris [5]; 5g a.i./10a) | herbicidal efficacy Digitaria ciliaris (Digitaria ciliaris [5]; 10g a.i./10a) | herbicidal efficacy Chenopodium album (Chenopodium album [6]; 5g a.i./10a) | herbicidal efficacy Chenopodium album (Chenopodium album [6]; 10g a.i./10a) | herbicidal efficacy Monochoria vaginalis (Monochoria vaginalis; 1g a.i./10a) | herbicidal efficacy Monochoria vaginalis (Monochoria vaginalis; 5g a.i./10a) | herbicidal efficacy Echinochloa crus-galli (Echinochloa crus-galli; 1g a.i./10a) | herbicidal efficacy Echinochloa crus-galli (Echinochloa crus-galli; 5g a.i./10a) | herbicidal efficacy Scirpus juncoides (Scirpus juncoides; 1g a.i./10a) | herbicidal efficacy Scirpus juncoides (Scirpus juncoides; 5g a.i./10a) | other results
CCOC(=O)N(C(=O)OCC)c1c(C#N)cnn1-c1nn2c(c1Br)CCCC2 [Compound 8] | 10 (10: 100%) | 10 (10: 100%) | 10 (10: 100%) | 10 (10: 100%) | 10 (10: 100%) | 10 (10: 100%) | 0 (0 (exponent): 0% to less than 10% (growth inhibition rate)) | 1 (1: 10% to less than 20%) | 10 (10: 100%) | 10 (10: 100%) | 10 (10: 100%) | 10 (10: 100%) | 9 (9: 90% to less than 100%) | 9 (9: 90% to less than 100%) | 10 (10: 100%) | 10 (10: 100%) | 10 (10: 100%) | 10 (10: 100%) | 9 (9: 90% to less than 100%) | 9 (9: 90% to less than 100%) | herbicidal efficacy Digitaria ciliaris (Digitaria ciliaris [7]): 10 (10: 100%); herbicidal efficacy Galinsoga parviflora (Galinsoga parviflora): 10 (10: 100%)
C=CCOC(=O)N(C(=O)OCC=C)c1c(C#N)cnn1-c1nn2c(c1Cl)CCCC2 [Compound 14] | 10 (10: 100%) | 10 (10: 100%) | 10 (10: 100%) | 10 (10: 100%) | 10 (10: 100%) | 10 (10: 100%) | 1 (1: 10% to less than 20%) | 1 (1: 10% to less than 20%) | 10 (10: 100%) | 10 (10: 100%) | 10 (10: 100%) | 10 (10: 100%) | 9 (9: 90% to less than 100%) | 10 (10: 100%) | 10 (10: 100%) | 10 (10: 100%) | 10 (10: 100%) | 10 (10: 100%) | 9 (9: 90% to less than 100%) | 10 (10: 100%) | herbicidal efficacy Digitaria ciliaris (Digitaria ciliaris [7]): 10 (10: 100%); herbicidal efficacy Galinsoga parviflora (Galinsoga parviflora): 10 (10: 100%)
